Test system: FMDV of O-type
Settings: guinea pig, in vivo

For “RNase: recombinant / wild-type human RNase I (Examples 22, 30, 31)”, the “resistance to FMD on repeated infection” value was “resistant to FMD following subsequent repeated infection”.

From patent US10335372B2, “Compositions with modified nucleases targeted to viral nucleic acids and methods of use for prevention and treatment of viral diseases” (priority 2004, dated 2019)
